Tested on: cytoplasmic mutant R636S RBM20 condensates in H9C2 cells
Assay: Screening assay for compounds that modulate cytoplasmic mutant R636S RBM20 condensates (fluorescence imaging)
Format: cell-based, rat
Conditions: H9C2 cells transiently transfected with R636S RBM20-Dendra2; 20 μM test compound; incubated 24 hours; versus DMSO
Method: H9C2 cells were engineered using transient transfection to express a mutant R636S RBM20 polypeptide linked to a Dendra2 label. Following transfection, cells were incubated to allow for RBM20 polypeptide expression for about 16 hours. H9C2 cells were seeded into 384-well plates, and admixed with a control (DMSO) or 20 μM test compound, and then incubated for 24 hours prior to fixation, staining (e.g., with DAPI), and capturing of fluorescent images. H9C2 cells not transfected with mutant R636S RBM20 polypeptide served as controls. Three replicates were run for each compound. Fluorescent images of cells, and/or portions of cells, were captured using a DeltaVision wide-field deconvoluted system.
Non-transfected H9C2 cells served as control. […] Their down-regulation levels are indicated as Z score under each panel.

| SMILES | effect on cytoplasmic mutant R636S RBM20 condensates |
| --- | --- |
| O=C1Nc2cc(Br)ccc2/C1=C1/Nc2ccccc2/C1=N\O [BIO] | able to reduce cytoplasmic mutant R636S RBM20 condensates |
| CCN(CC)CCCC(C)Nc1c2ccc(Cl)cc2nc2ccc(OC)cc12.Cl.Cl (stereo not drawn) [Quinacrine 2HCl] | increased cytoplasmic mutant R636S RBM20 condensates |
| CC(C)[C@]12O[C@H]1[C@@H]1O[C@]13[C@]1(O[C@H]1C[C@H]1C4=C(CC[C@@]13C)C(=O)OC4)[C@@H]2O [Triptolide] | able to reduce cytoplasmic mutant R636S RBM20 condensates |
| Cn1ncc(Cl)c1-c1cc(C(=O)N[C@H](CN)Cc2ccc(F)c(F)c2)oc1Cl [Uprosertib] | able to reduce cytoplasmic mutant R636S RBM20 condensates |
| CN1CCN(Cc2ccc(NC(=O)Cc3ccc(Oc4cc(NC(=O)C5CC5)ncn4)cc3)cc2C(F)(F)F)CC1 [WS6] | able to reduce cytoplasmic mutant R636S RBM20 condensates |
| COc1ccc(C[C@H]2NC[C@H](O)[C@H]2OC(C)=O)cc1 [anisomycin] | able to reduce cytoplasmic mutant R636S RBM20 condensates |

Source: US20220365070A1, “COMPOSITIONS, SYSTEMS, AND METHODS FOR IDENTIFYING A COMPOUND THAT MODULATES ONE OR MORE CHARACTERISTICS ASSOCIATED WITH A RBM20 CONDENSATE AND/OR A RBM20 POLYPEPTIDE” (Dewpoint Therapeutics, Inc., priority 2019, published 2022)
